Results published in US8921108B2, “Differentiated human liver cell cultures and their use in bioartificial liver systems” (Academisch Ziekenhuis Bij de Universiteit van Amsterdam, priority 2009, dated 2014).
Marks after values point to notes of the source that are not given here.

How the values were obtained:
[1] = tested on: HepaRG cells; assay: RT-PCR mRNA levels of hepatic genes in HepaRG monolayer cultures; format: cell-based, human; settings: CG treatment
Procedure: The HepaRG cells cultured in the 6-well plates are lysed and the RNA is isolated using the RNeasy kit (Qiagen). Next, real-time reverse transcriptase-polymerase chain reactions (RT-PCR) are performed to quantify mRNA levels of hepatic genes as well as 18S ribosomal RNA levels by RT-PCR.
First-strand cDNA is generated using a combination of 40 pmol of gene-specific RT-primers (see Table 1) and 134 units of Superscript III (Invitrogen) and 1 μg RNA in a total volume of 25 μl at 50° C. for one hour followed by a 15 min incubation at 70° C. The resulting gene-specific RT reaction mixtures are column purified using Qiaquick PCR Purification Kit (Qiagen).
Real-time PCR is performed using 1 μl of cDNA and LightCycler FastStart DNA Master SYBR® Green 1 reagent (Roche). PCR primers are depicted in the Table 3. The thermal cycling profile of the touchdown PCR is as follows: 94° C. for 10 min, followed by 40 cycles of 94° C. for 1 s, primer annealing at 68° C. for 7 s with a 0.5° C./cycle decrease until 63° C., and extension for 40 s at 72° C. PCR specificity is verified by melting curve analysis and agarose gel electrophoresis. The mRNA quantification is carried out by using the LinRegPCR programme (Ramakers et al.^17). For each sample the mRNA starting level is normalised for the 18S rRNA starting level. To correct for variations between RT-PCR runs, the mRNA starting levels of liver specific genes of NKNT-3 cells are additionally standardized for average mRNA starting levels of two liver samples that are simultaneously subjected to RT-PCR.

[2] = tested on: HepaRG cells; assay: RT-PCR mRNA levels of hepatic genes in HepaRG cells from AMC-BAL bioreactor; format: cell-based, human
[3] = Bioreactor −DMSO +CG versus Monolayer + DMSO − CG
[4] = Bioreactor −DMSO +CG versus Monolayer − DMSO − CG
[5] = HepaRG in AMC-BAL bioreactor, 13 days, −DMSO, 1 mM CG

Structure (SMILES): NC(=O)N[C@@H](CCC(=O)O)C(=O)O [CG, carbamoyl glutamate]
- effect on other hepatic functions and the gene expression profiles [1]: No effect
- % improvement by bioreactor: Alb mRNA level [2, 3]: 313* %
- % improvement by bioreactor: ArgI mRNA level [2, 3]: 460* %
- % improvement by bioreactor: ArgII mRNA level [2, 3]: 42%
- % improvement by bioreactor: CPS mRNA level [2, 3]: 4000* %
- % improvement by bioreactor: CYP2B6 mRNA level [2, 3]: 49%
- % improvement by bioreactor: CYP3A4 mRNA level [2, 3]: 148%
- % improvement by bioreactor: GS mRNA level [2, 3]: 714%
- % improvement by bioreactor: HNF4 mRNA level [2, 3]: 198* %
- % improvement by bioreactor: PXR mRNA level [2, 3]: 633%
- % improvement by bioreactor: Alb mRNA level [2, 4]: 109%
- % improvement by bioreactor: ArgI mRNA level [2, 4]: 155%
- % improvement by bioreactor: ArgII mRNA level [2, 4]: 54%
- % improvement by bioreactor: CPS mRNA level [2, 4]: 145%
- % improvement by bioreactor: CYP2B6 mRNA level [2, 4]: 863* %
- % improvement by bioreactor: CYP3A4 mRNA level [2, 4]: 1063* %
- % improvement by bioreactor: GS mRNA level [2, 4]: 300* %
- % improvement by bioreactor: HNF4 mRNA level [2, 4]: 187* %
- % improvement by bioreactor: PXR mRNA level [2, 4]: 437%
- Alb mRNA level [2, 5]: 72.1 ± 26.0 % of in vivo
- ArgI mRNA level [2, 5]: 22.9 ± 10.4 % of in vivo
- ArgII mRNA level [2, 5]: 305 ± 143 % of in vivo
- CPS mRNA level [2, 5]: 44.1 ± 32.2 % of in vivo
- CYP2B6 mRNA level [2, 5]: 30.2 ± 15.9 % of in vivo
- CYP3A4 mRNA level [2, 5]: 102 ± 49.4 % of in vivo
- GS mRNA level [2, 5]: 643 ± 395 % of in vivo
- HNF4 mRNA level [2, 5]: 386 ± 216 % of in vivo
- PXR mRNA level [2, 5]: 82.5 ± 68.9 % of in vivo
